Laboratory results published in US20260041703A1, “HYPERBRANCHED DEXTRINS FOR TOPICAL USE IN THE PREVENTION OR TREATMENT OF AT LEAST ONE SYMPTOM OF SKIN INFLAMMATION” (ROQUETTE FRERES, priority 2022, published 2026).

Key:
[1] = tested on: 3D reconstructed human epidermis; assay: Membrane integrity (LDH release, colorimetry) in 3D reconstructed human epidermis model; format: cell-based
Text: The aim of the study was to assess the membrane integrity of skin cells in a three-dimensional (3D) reconstructed human epidermis model, by measuring the amount of the enzyme lactate dehydrogenase (LDH) in the culture supernatant, using colorimetry. LDH is an enzyme that is released in the event of cell death. The absence of LDH secretion is a sign that the integrity of epidermal cell membranes is preserved. Samples of 3D reconstructed human epidermis were immersed in an aqueous solution containing 0.5% by weight of sodium lauryl sulfate, for 6 hours. […] The amount of LDH secreted into the supernatant was then determined colorimetrically.

IL-1α [2] = assay: Semi-quantitative fluorescence cytokine array (Human Cytokine Array G3), IL-1α; format: cell-based; conditions: 0.5% SLS positive control (6 hours); fluorescent signal intensity
Description: (§1) Cell culture supernatants collected after epidermal treatment are tested using the Human Cytokine Array G3 kit (RayBiotech).
(§2) On a glass slide containing the different specific antibodies, supernatants are deposited at a rate of 100 μL per well. A cocktail of biotin-coupled secondary antibodies is then added. With the addition of streptavidin, signal intensities are detected by fluorescence. Each step is followed by several washes.
(§3) The ratios (fluorescent signal intensity of the marker in the presence of the samples/fluorescent signal intensity of the marker in the untreated control) were calculated for each treatment from n=3 epidermal culture supernatants (except for the untreated control, n=2).
(§4) A ratio >1.5 reflects overexpression of the inflammatory marker.
(§5) A ratio <0.65 indicates underexpression of the inflammatory marker.
(§6) According to the supplier's criteria, signals are usable when they are greater than the average of the background noise+2SD.

[3] = tested on: reconstructed human epidermis (normal human epidermal keratinocytes, NHEK); assay: MTT cell proliferation (viability) test on 2D reconstructed human epidermis after SLS inflammation; format: cell-based; conditions: % of untreated control
Description: Irritating chemical compounds are able to penetrate the stratum corneum and are cytotoxic to cells in the underlying layers. […] Cell viability is measured upon metabolism, by mitochondrial succinic dehydrogenase, of the vital dye MTT [3-(4,5-dimethylthiazol-2-yl)-2,5-bromide diphenyltetrazolium, thiazolyl blue; EINECS number 206-069-5, CAS number 298-93-1)], to a blue formazan salt which is measured quantitatively after its extraction from tissues.
The colored solution is measured spectrophotometrically at 570 nm using the Molecular Devices Vmax microplate reader, and absorbance values are recorded using the SOFTmax PRO v4.7.1 software. Statistical analysis is performed using GraphPad Prism v5.03 software.
Cytotoxicity of samples was tested using the epidermis model and is expressed as a percentage of untreated control (UTC) tissue.

IL-8 = assay: ELISA assay of inflammation marker IL-8 in supernatant of 2D reconstructed human epidermis; format: cell-based; conditions: 0.5% SLS positive control (6 hours)
Text: After washing, HRP-streptavidin is deposited in the wells. […] The inflammatory response is interpreted as a sample-to-untreated ratio greater than or equal to 2.
A ratio greater than or equal to 2 reflects overexpression of the inflammatory marker while a ratio less than 2 indicates non-expression of the inflammatory marker.

IL-1β = assay: Semi-quantitative fluorescence cytokine array (Human Cytokine Array G3), IL-1β; format: cell-based; conditions: 0.5% SLS positive control (6 hours)
Description: as §1, §2, §3, §4, §5, §6

VEGF = assay: Semi-quantitative fluorescence cytokine array (Human Cytokine Array G3), VEGF; format: cell-based; conditions: 0.5% SLS positive control (6 hours)
Description: as §1, §2, §3, §4, §5, §6

RANTES = assay: Semi-quantitative fluorescence cytokine array (Human Cytokine Array G3), RANTES; format: cell-based; conditions: 0.5% SLS positive control (6 hours)
Description: as §1, §2, §3, §4, §5, §6

IL-1α [4] = assay: ELISA assay of inflammation marker IL-1α in supernatant of 2D reconstructed human epidermis; conditions: 0.5% SLS positive control (6 hours)
Description: This model comprises a monolayer of normal human epidermal keratinocytes (NHEK, one of the main cell types of the skin), which have been cultured on inert polycarbonate inserts.
The epidermises were treated with a 0.5% aqueous solution of Sodium Lauryl Sulfate (SLS) for 6 hours to create inflammation of the reconstructed epidermis, then the surface of the epidermises was rinsed with 500 μL of PBS. 20 μL of different concentrations of hydrogenated and highly branched dextrins (10 and 5% in ultrapure water) and 0.05% Betamethasone cream (Biogaran cream, a corticoid with an anti-inflammatory role) were applied topically to the epidermis for 20 hours at 37° C. No application was made for the SLS control within 20 hours of rinsing with PBS. […]
For this, cell supernatants are collected after the required treatment time and commercially available ELISA kits are used to quantitatively determine the presence of inflammatory markers.
These ELISA kits are designed for quantitative measurement of the aforementioned markers, particularly in culture supernatants using specific human antibodies. […] A developer solution changes the color from blue to yellow, and its intensity is measured at 450 nm using the Molecular Devices Vmax microplate reader. Absorbance values are recorded and analyzed using SOFTmax PRO v4.7.1 software. […]

**Q.** C[C@H]1C[C@H]2[C@@H]3CCC4=CC(=O)C=C[C@]4(C)[C@@]3(F)[C@@H](O)C[C@]2(C)[C@@]1(O)C(=O)CO [betamethasone] was tested. Which “Membrane integrity (%)” value ([1]; 0.5% SLS (6 hours) + 0.5% betamethasone (20 hours)) did it give?
**A.** 110.7%

**Q.** How did the “Membrane integrity (%)” value ([1]; 0.5% SLS (6 hours) + 0.5% bisabolol (20 hours)) turn out when CC(C)=CCC[C@](C)(O)C1CC=C(C)CC1 (stereo partly drawn) [bisabolol] was run?
**A.** 16.8%

**Q.** How did the “IL-1α Sample/Untreated ratio” value (IL-1α [2]) turn out when CCCCCCCCCCCCOS(=O)(=O)[O-].[Na+] [SLS, Sodium Lauryl Sulfate] was run?
**A.** 2.3

**Q.** And the Viability % ([3]; 0.5% SLS positive control (6 hours))?
**A.** 82.1%

**Q.** And the Viability % ([3]; 2% SLS positive control, mean of 3 replicates)?
**A.** 0.9%

**Q.** What about the “IL-8 Sample:Untreated ratio” value (IL-8) of the same compound?
**A.** 3.2

**Q.** What about the IL-8 assayed quantity (IL-8) of the same compound?
**A.** (453 pg/mL)

**Q.** What about the “IL-1β Sample/Untreated ratio” value (IL-1β) of the same compound?
**A.** 0.8

**Q.** And the “VEGF Sample/Untreated ratio” value (VEGF)?
**A.** 1.9

**Q.** What about the “RANTES Sample/Untreated ratio” value (RANTES) of the same compound?
**A.** 6.7

**Q.** And the “IL-1a Sample:Untreated ratio” value (IL-1α [4])?
**A.** 2.3

**Q.** What about the IL-1a assayed quantity (IL-1α [4]) of the same compound?
**A.** (61 pg/mL)
